Earlier results in US20060252804A1, “Flupirtin injectable galenic form” (AWD.pharma GMBH &Co. KG, priority 2003, published 2006).

Settings: in aqueous solutions and in most physiologically tolerated organic solvents

CCOC(=O)Nc1ccc(NCc2ccc(F)cc2)nc1N [flupirtine, 2-amino-3-carbethoxyamino-6-(4-fluorobenzylamino)pyridine]
solubility: scarcely soluble
